Reference: article PMC5218480 (PLoS ONE, 2017)

Test system: MV-4-11 cells
Assay: Gene expression microarray analysis (Affymetrix PrimeView) and GSEA
Type: cell-based, human
Set-up: RFU PODN (11730768_x_at) / Fold change /veh PODN (11730768_x_at) / RFU LINC00158 (11744669_a_at) / Fold change /veh LINC00158 (11744669_a_at) / RFU DUSP10 (11751237_a_at) / Fold change /veh DUSP10 (11751237_a_at) / RFU ID3 (11757404_x_at) / Fold change /veh ID3 (11757404_x_at) / RFU PLEKHG5 (11737974_s_at) / Fold change /veh PLEKHG5 (11737974_s_at) / RFU LRRC4B (11730491_at) / Fold change /veh LRRC4B (11730491_at) / RFU GIMAP4 (11747438_a_at) / Fold change /veh GIMAP4 (11747438_a_at) / RFU KRT8 (11758183_x_at) / Fold change /veh KRT8 (11758183_x_at) / RFU CNN1 (11734310_a_at) / Fold change /veh CNN1 (11734310_a_at) / RFU VPS37D (11726825_at) / Fold change /veh VPS37D (11726825_at) / RFU C10orf10 (11716522_x_at) / Fold change /veh C10orf10 (11716522_x_at) / RFU KIR2DL2 /// KIR2DL4 /// KIR2DL5A /// KIR2DL5B /// KIR2DS1 /// KIR2DS2 /// KIR2DS3 /// KIR2DS4 /// KIR3DL3 /// KIR3DL3 /// KIR3DS1 (11738374_at) / Fold change /veh KIR2DL2 /// KIR2DL4 /// KIR2DL5A /// KIR2DL5B /// KIR2DS1 /// KIR2DS2 /// KIR2DS3 /// KIR2DS4 /// KIR3DL3 /// KIR3DL3 /// KIR3DS1 (11738374_at) / RFU C1QL1 (11718748_at) / Fold change /veh C1QL1 (11718748_at) / RFU TMPRSS4 (11747572_a_at) / Fold change /veh TMPRSS4 (11747572_a_at) / RFU HAMP (11756126_x_at) / Fold change /veh HAMP (11756126_x_at) / RFU RNFT2 (11725882_a_at) / Fold change /veh RNFT2 (11725882_a_at) / RFU NR4A2 (11747474_a_at) / Fold change /veh NR4A2 (11747474_a_at) / RFU ABCC12 (11746883_a_at) / Fold change /veh ABCC12 (11746883_a_at) / RFU TMEM136 (11760407_x_at) / Fold change /veh TMEM136 (11760407_x_at) / RFU CLDN22 /// WWC2 (11732394_at) / Fold change /veh CLDN22 /// WWC2 (11732394_at) / RFU HLA-DPB1 (11760878_x_at) / Fold change /veh HLA-DPB1 (11760878_x_at) / RFU SPINT1 (11716480_a_at) / Fold change /veh SPINT1 (11716480_a_at) / RFU GAP43 (11754022_s_at) / Fold change /veh GAP43 (11754022_s_at) / RFU A4GNT (11735810_at) / Fold change /veh A4GNT (11735810_at) / RFU PRB3 (11715151_x_at) / Fold change /veh PRB3 (11715151_x_at) / RFU TUBB4B (11761932_at) / Fold change /veh TUBB4B (11761932_at) / RFU CAPN14 (11732068_a_at) / Fold change /veh CAPN14 (11732068_a_at) / RFU TMCC2 (11721928_a_at) / Fold change /veh TMCC2 (11721928_a_at) / RFU IRGQ (11745062_a_at) / Fold change /veh IRGQ (11745062_a_at) / RFU FAM174B (11720279_a_at) / Fold change /veh FAM174B (11720279_a_at) / RFU TMPRSS4 (11748680_a_at) / Fold change /veh TMPRSS4 (11748680_a_at) / RFU FAM212B (11763350_a_at) / Fold change /veh FAM212B (11763350_a_at) / RFU PLEKHG5 (11743358_a_at) / Fold change /veh PLEKHG5 (11743358_a_at) / RFU ZSCAN30 (11745921_a_at) / Fold change /veh ZSCAN30 (11745921_a_at) / RFU CMKLR1 (11741424_a_at) / Fold change /veh CMKLR1 (11741424_a_at) / RFU LOC101060620 /// MAPK8IP1 (11723275_at) / Fold change /veh LOC101060620 /// MAPK8IP1 (11723275_at) / RFU SPTSSB (11747773_x_at) / Fold change /veh SPTSSB (11747773_x_at) / RFU PRSS12 (11739890_at) / Fold change /veh PRSS12 (11739890_at) / RFU BIN1 (11741810_x_at) / Fold change /veh BIN1 (11741810_x_at) / RFU WNT11 (11732464_a_at) / Fold change /veh WNT11 (11732464_a_at) / RFU C10orf10 (11716521_a_at) / Fold change /veh C10orf10 (11716521_a_at) / RFU C5orf56 (11738089_at) / Fold change /veh C5orf56 (11738089_at) / RFU CYB561 (11721691_x_at) / Fold change /veh CYB561 (11721691_x_at) / RFU ANKRD19P (11752326_a_at) / Fold change /veh ANKRD19P (11752326_a_at) / RFU OR2T12 /// OR2T33 /// OR2T8 (11738714_s_at) / Fold change /veh OR2T12 /// OR2T33 /// OR2T8 (11738714_s_at) / RFU VCAN (11748164_a_at) / Fold change /veh VCAN (11748164_a_at) / RFU JSRP1 (11732532_at) / Fold change /veh JSRP1 (11732532_at) / RFU KRTAP10-11 (11738290_x_at) / Fold change /veh KRTAP10-11 (11738290_x_at) / RFU MYO3A (11730013_a_at) / Fold change /veh MYO3A (11730013_a_at) / RFU EBF3 (11725865_a_at) / Fold change /veh EBF3 (11725865_a_at) / RFU CAMK2N1 (11719241_x_at) / Fold change /veh CAMK2N1 (11719241_x_at) / RFU C5orf56 (11738088_a_at) / Fold change /veh C5orf56 (11738088_a_at) / RFU OLFML3 (11715873_a_at) / Fold change /veh OLFML3 (11715873_a_at) / RFU LOC100653217 /// NTM (11731650_a_at) / Fold change /veh LOC100653217 /// NTM (11731650_a_at) / RFU MAPK11 (11762145_a_at) / Fold change /veh MAPK11 (11762145_a_at) / RFU FIZ1 (11724087_x_at) / Fold change /veh FIZ1 (11724087_x_at) / RFU OASL (11726364_x_at) / Fold change /veh OASL (11726364_x_at) / RFU SOX15 (11748057_x_at) / Fold change /veh SOX15 (11748057_x_at) / RFU CD79A (11719716_a_at) / Fold change /veh CD79A (11719716_a_at) / RFU HIST1H1D (11736915_at) / Fold change /veh HIST1H1D (11736915_at) / RFU CASKIN2 (11723855_a_at) / Fold change /veh CASKIN2 (11723855_a_at) / RFU LOC730098 (11760151_x_at) / Fold change /veh LOC730098 (11760151_x_at) / RFU OR4N2 (11742367_at) / Fold change /veh OR4N2 (11742367_at) / RFU PRRT2 (11749266_a_at) / Fold change /veh PRRT2 (11749266_a_at) / RFU SNX32 (11753110_a_at) / Fold change /veh SNX32 (11753110_a_at) / RFU CDHR5 (11726645_a_at) / Fold change /veh CDHR5 (11726645_a_at) / RFU RCAN1 (11760418_a_at) / Fold change /veh RCAN1 (11760418_a_at) / RFU FAM167A (11723789_a_at) / Fold change /veh FAM167A (11723789_a_at) / RFU FAM26E (11764081_at) / Fold change /veh FAM26E (11764081_at) / RFU ISYNA1 (11749810_s_at) / Fold change /veh ISYNA1 (11749810_s_at) / RFU ACY1 (11761880_at) / Fold change /veh ACY1 (11761880_at) / RFU 11764098_at / Fold change /veh 11764098_at / RFU SAMD14 (11745864_x_at) / Fold change /veh SAMD14 (11745864_x_at) / RFU NPB (11741838_a_at) / Fold change /veh NPB (11741838_a_at) / RFU TMPRSS6 (11731388_a_at) / Fold change /veh TMPRSS6 (11731388_a_at) / RFU KRTAP10-2 (11738614_at) / Fold change /veh KRTAP10-2 (11738614_at) / RFU ARHGAP8 /// PRR5-ARHGAP8 (11727945_x_at) / Fold change /veh ARHGAP8 /// PRR5-ARHGAP8 (11727945_x_at) / RFU KRTAP5-7 /// NADSYN1 (11734609_at) / Fold change /veh KRTAP5-7 /// NADSYN1 (11734609_at) / RFU RASL12 (11751679_a_at) / Fold change /veh RASL12 (11751679_a_at) / RFU CDKN2B (11736163_a_at) / Fold change /veh CDKN2B (11736163_a_at) / RFU PRF1 (11729649_at) / Fold change /veh PRF1 (11729649_at) / RFU, ZNF638 /// ZNF638-IT1 / Fold change vs veh, ZNF638 /// ZNF638-IT1 / RFU, PANK3 / Fold change vs veh, PANK3 / RFU, SH3YL1 / Fold change vs veh, SH3YL1 / RFU, ZEB2 / Fold change vs veh, ZEB2 / RFU, NRIP1 / Fold change vs veh, NRIP1 / RFU, PTTG1IP / Fold change vs veh, PTTG1IP / RFU, CAPN2 / Fold change vs veh, CAPN2 / RFU, MED14 / Fold change vs veh, MED14 / RFU, SNORA58 / Fold change vs veh, SNORA58 / RFU, C1orf63 / Fold change vs veh, C1orf63 / RFU, LRRFIP1 / Fold change vs veh, LRRFIP1 / RFU, NDUFAF7 / Fold change vs veh, NDUFAF7 / RFU, SLC12A2 / Fold change vs veh, SLC12A2 / RFU, IBTK / Fold change vs veh, IBTK / RFU, ESF1 / Fold change vs veh, ESF1 / Fold change vs veh, TMEM50B / RFU, TAOK1 / Fold change vs veh, TAOK1 / RFU, ACBD3 / Fold change vs veh, ACBD3 / RFU, TMA16 / Fold change vs veh, TMA16 / RFU, RWDD3 / Fold change vs veh, RWDD3 / RFU, BCAT1 / Fold change vs veh, BCAT1 / RFU, EDEM3 / Fold change vs veh, EDEM3 / RFU, TMEM33 / Fold change vs veh, TMEM33 / RFU, WDR75 / Fold change vs veh, WDR75 / RFU, AHCTF1 / Fold change vs veh, AHCTF1 / RFU, TFRC / Fold change vs veh, TFRC / RFU, ZDHHC17 / Fold change vs veh, ZDHHC17 / RFU, NOM1 / Fold change vs veh, NOM1 / RFU, ARL8B / Fold change vs veh, ARL8B / RFU, ZBTB11 / Fold change vs veh, ZBTB11 / RFU, TAMM41 / Fold change vs veh, TAMM41 / RFU, KIAA1704 /// LOC100996395 / Fold change vs veh, KIAA1704 /// LOC100996395 / RFU, ING1 / Fold change vs veh, ING1 / RFU, TRMT61B / Fold change vs veh, TRMT61B / RFU, FUBP3 / Fold change vs veh, FUBP3 / RFU, TP53 / Fold change vs veh, TP53 / RFU, TNKS2 / Fold change vs veh, TNKS2 / RFU, ZFP14 / Fold change vs veh, ZFP14 / RFU, ACTR2 / Fold change vs veh, ACTR2 / RFU, PPP3R1 / Fold change vs veh, PPP3R1 / RFU, PIK3R1 / Fold change vs veh, PIK3R1 / RFU, HNRNPA1 / Fold change vs veh, HNRNPA1 / RFU, RNF170 / Fold change vs veh, RNF170 / RFU, ZNF28 / Fold change vs veh, ZNF28 / RFU, RNGTT / Fold change vs veh, RNGTT / RFU, OGT / Fold change vs veh, OGT / RFU, BRD1 / Fold change vs veh, BRD1 / RFU, MARS / Fold change vs veh, MARS / RFU, ZNF655 / Fold change vs veh, ZNF655 / RFU, FAHD1 / Fold change vs veh, FAHD1 / RFU, BDP1 / Fold change vs veh, BDP1 / RFU, LRRCC1 / Fold change vs veh, LRRCC1 / RFU, ARID1A / Fold change vs veh, ARID1A / RFU, ZNF146 / Fold change vs veh, ZNF146 / RFU, ZNF330 / Fold change vs veh, ZNF330 / RFU, GPN3 / Fold change vs veh, GPN3 / RFU, C9orf123 / Fold change vs veh, C9orf123 / RFU, N4BP2L2 / Fold change vs veh, N4BP2L2 / RFU, ARFIP1 / Fold change vs veh, ARFIP1 / RFU, FAM179B / Fold change vs veh, FAM179B / RFU, BCL10 / Fold change vs veh, BCL10 / RFU, UHRF1BP1L / Fold change vs veh, UHRF1BP1L / RFU, BET1 / Fold change vs veh, BET1 / RFU, CNOT2 / Fold change vs veh, CNOT2 / RFU, ZNF268 / Fold change vs veh, ZNF268 / Fold change vs veh, ZNF507 / RFU, DGCR2 / Fold change vs veh, DGCR2 / RFU, WDSUB1 / Fold change vs veh, WDSUB1 / Fold change vs veh, HSP90B1 /// MIR3652 / RFU, ADSS / Fold change vs veh, ADSS / RFU, GK / Fold change vs veh, GK / RFU, ZNF148 / Fold change vs veh, ZNF148 / RFU, TAF9 / Fold change vs veh, TAF9 / RFU, SLC1A5 / Fold change vs veh, SLC1A5 / RFU, SLMO2 / Fold change vs veh, SLMO2 / RFU, ABCC4 / Fold change vs veh, ABCC4 / RFU, LOC101060439 /// RAP1B / Fold change vs veh, LOC101060439 /// RAP1B / RFU, RFX7 / Fold change vs veh, RFX7 / RFU, GTPBP10 / Fold change vs veh, GTPBP10 / RFU, CNEP1R1 / Fold change vs veh, CNEP1R1 / RFU, BIVM-ERCC5 /// ERCC5 / Fold change vs veh, BIVM-ERCC5 /// ERCC5 / RFU, ILF3 / Fold change vs veh, ILF3 / RFU 11762660_at / Fold change /veh 11762660_at / RFU VCAN (11757783_s_at) / Fold change /veh VCAN (11757783_s_at) / RFU DDX43 (11728927_at) / Fold change /veh DDX43 (11728927_at) / RFU KRT8 (11758188_x_at) / Fold change /veh KRT8 (11758188_x_at) / RFU NKD1 (11759106_at) / Fold change /veh NKD1 (11759106_at) / RFU SRD5A1 (11742802_a_at) / Fold change /veh SRD5A1 (11742802_a_at) / RFU TPSAB1 /// TPSB2 (11721975_s_at) / Fold change /veh TPSAB1 /// TPSB2 (11721975_s_at) / RFU GSTM3 (11746129_a_at) / Fold change /veh GSTM3 (11746129_a_at) / RFU IL23R (11737362_x_at) / Fold change /veh IL23R (11737362_x_at) / RFU TMEM51 (11727254_a_at) / Fold change /veh TMEM51 (11727254_a_at) / RFU PIWIL2 (11732686_x_at) / Fold change /veh PIWIL2 (11732686_x_at) / RFU ORM1 (11744905_x_at) / Fold change /veh ORM1 (11744905_x_at) / RFU CCDC152 (11743942_at) / Fold change /veh CCDC152 (11743942_at) / RFU ECM1 (11717891_a_at) / Fold change /veh ECM1 (11717891_a_at) / RFU IL23R (11748794_a_at) / Fold change /veh IL23R (11748794_a_at) / RFU TNFAIP8L3 (11732012_x_at) / Fold change /veh TNFAIP8L3 (11732012_x_at) / RFU MBOAT4 (11741988_at) / Fold change /veh MBOAT4 (11741988_at) / RFU 11764193_at / Fold change /veh 11764193_at / RFU TMEM53 (11763286_at) / Fold change /veh TMEM53 (11763286_at) / RFU MAGEB2 (11727129_at) / Fold change /veh MAGEB2 (11727129_at) / RFU TMEM200A (11744735_a_at) / Fold change /veh TMEM200A (11744735_a_at) / RFU CCDC152 (11751479_a_at) / Fold change /veh CCDC152 (11751479_a_at) / RFU FAM211A (11726209_a_at) / Fold change /veh FAM211A (11726209_a_at) / RFU RGS16 (11746705_a_at) / Fold change /veh RGS16 (11746705_a_at) / RFU VCAN (11755009_s_at) / Fold change /veh VCAN (11755009_s_at) / RFU RHOB (11743442_s_at) / Fold change /veh RHOB (11743442_s_at) / RFU RGS16 (11720943_a_at) / Fold change /veh RGS16 (11720943_a_at) / RFU RGS16 (11720944_at) / Fold change /veh RGS16 (11720944_at) / RFU, VPS4B / Fold change vs veh, VPS4B / RFU, CREB1 / Fold change vs veh, CREB1 / RFU, DNAJC13 / Fold change vs veh, DNAJC13 / RFU, GNAQ / Fold change vs veh, GNAQ / RFU, CDK5R1 / Fold change vs veh, CDK5R1 / RFU, ZRANB3 / Fold change vs veh, ZRANB3 / RFU, CUL4A / Fold change vs veh, CUL4A / RFU, CCNY / Fold change vs veh, CCNY / RFU, UFL1 / Fold change vs veh, UFL1 / RFU, COG3 / Fold change vs veh, COG3 / RFU, DIAPH2 / Fold change vs veh, DIAPH2 / RFU, SKA2 / Fold change vs veh, SKA2 / RFU, AFF3 / Fold change vs veh, AFF3 / RFU, LMF1 / Fold change vs veh, LMF1 / RFU, IPO11 / Fold change vs veh, IPO11 / RFU, DFFB / Fold change vs veh, DFFB / RFU, FOXP1 / Fold change vs veh, FOXP1 / RFU, CARD8 / Fold change vs veh, CARD8 / RFU, STRN3 / Fold change vs veh, STRN3 / RFU, ADK / Fold change vs veh, ADK / RFU, RASSF2 / Fold change vs veh, RASSF2 / RFU, WIPF1 / Fold change vs veh, WIPF1 / RFU, LARP1B / Fold change vs veh, LARP1B / RFU, RASA1 / Fold change vs veh, RASA1 / RFU, RB1 / Fold change vs veh, RB1 / RFU, PPFIA1 / Fold change vs veh, PPFIA1 / RFU, MAT2A / Fold change vs veh, MAT2A / RFU, CCT5 / Fold change vs veh, CCT5 / RFU, WDR92 / Fold change vs veh, WDR92 / RFU, CUX1 / Fold change vs veh, CUX1 / RFU, TTC7A / Fold change vs veh, TTC7A / RFU, TMEM135 / Fold change vs veh, TMEM135 / RFU, DEPTOR / Fold change vs veh, DEPTOR / RFU, CPM / Fold change vs veh, CPM / RFU, DNAJB6 / Fold change vs veh, DNAJB6 / RFU, CACNA2D3 / Fold change vs veh, CACNA2D3 / RFU, DTX4 / Fold change vs veh, DTX4 / RFU, TFCP2 / Fold change vs veh, TFCP2 / RFU, GMCL1 /// GMCL1P1 / Fold change vs veh, GMCL1 /// GMCL1P1 / RFU, AEBP2 / Fold change vs veh, AEBP2 / RFU, SNHG1 /// SNORD22 /// SNORD25 /// SNORD26 /// SNORD27 /// SNORD28 /// SNORD29 /// SNORD31 / Fold change vs veh, SNHG1 /// SNORD22 /// SNORD25 /// SNORD26 /// SNORD27 /// SNORD28 /// SNORD29 /// SNORD31 / Fold change (Aza/veh), C12orf56 (ProbeSet 11735607_a_at) / Fold change (ACY-1035/veh), C12orf56 (ProbeSet 11735607_a_at) / Fold change (Aza/veh), FGFR1OP (ProbeSet 11751329_s_at) / Fold change (ACY-1035/veh), FGFR1OP (ProbeSet 11751329_s_at) / Fold change (Aza/veh), VPS36 (ProbeSet 11739960_a_at) / Fold change (ACY-1035/veh), VPS36 (ProbeSet 11739960_a_at) / RFU SYPL1 (11715823_x_at) / Fold change /veh SYPL1 (11715823_x_at) / RFU IGFBP7 (11715501_s_at) / Fold change /veh IGFBP7 (11715501_s_at) / RFU REEP3 (11722064_at) / Fold change /veh REEP3 (11722064_at) / RFU IGLL1 (11728026_x_at) / Fold change /veh IGLL1 (11728026_x_at): dose or concentration left out as unconfirmed
Conditions: ProbeSet 11755425_a_at; LIST B

Nc1ccc(-c2cccs2)cc1NC(=O)c1ccc2c(c1)cc(C1CC1)n2CCN1CCOCC1 [ACY-1035]
RFU, FAM179B: 77.88 RFU
